From paper PMC7948495, “The flexible N-terminus of BchL autoinhibits activity through interaction with its [4Fe-4S] cluster and released upon ATP binding” (The Journal of Biological Chemistry, 2020)

Assays:
BchL [1] = molecular target: T1, BchL (Cereibacter sphaeroides, UniProt Q9RFD6); assay: EPR of the [4Fe-4S] cluster; type: binding; conditions: 40 µM BchL, 3 mM ADP, 1.7 mM dithionite
T1 construct: full-length with N-terminal 6xHis tag and TEV site; recombinant, plasmid-expressed; anaerobically purified; homodimer bridged by one [4Fe-4S] cluster
T1 sequence (Q9RFD6 whole entry): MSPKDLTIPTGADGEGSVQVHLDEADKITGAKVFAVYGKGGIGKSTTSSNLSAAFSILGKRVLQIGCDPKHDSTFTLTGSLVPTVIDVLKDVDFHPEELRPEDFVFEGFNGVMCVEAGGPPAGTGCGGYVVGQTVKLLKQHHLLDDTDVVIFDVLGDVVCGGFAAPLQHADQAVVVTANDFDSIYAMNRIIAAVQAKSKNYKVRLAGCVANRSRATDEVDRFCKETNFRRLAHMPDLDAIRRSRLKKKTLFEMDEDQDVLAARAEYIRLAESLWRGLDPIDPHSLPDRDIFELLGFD

linked-BchL (L1-L2) [2] = molecular target: T2, linked-BchL (L1-L2) (Cereibacter sphaeroides, UniProt Q9RFD6); assay: nitrocellulose filter binding; conditions: labelled compound (α32P-ATP tracer); 4 µM BchL, 1 mM ATP, 10 mM MgCl2, pH 7.5, 25 °C; stoichiometry, no affinity constant
T2 construct: N-terminal 6xHis tag and TEV site
T2 sequence (Q9RFD6 whole entry): as above
Excerpt: nitrocellulose filter binding on linked-BchL (L1-L2) | linked-BchL with unaltered ATP-binding sites ([…]) bind ATP to similar extents

linked-BchL (L1-L2) [3] = molecular target: T3, linked-BchL (L1-L2) (Cereibacter sphaeroides, UniProt Q9RFD6, K44A); assay: nitrocellulose filter binding; conditions: labelled compound (32P-ATP tracer); 1 mM ATP, 10 mM MgCl2, pH 7.5, 25 °C; one of two sites mutated
T3 construct: N-terminal 6xHis tag and TEV site
T3 sequence (Q9RFD6 whole entry K44A): as the sequence (Q9RFD6 whole entry) above, with K44A counted along it

BchL [4] = molecular target: T4, BchL (Cereibacter sphaeroides, UniProt Q9RFD6, S17A); assay: hydrogen-deuterium exchange mass spectrometry; type: binding; conditions: 2 mM ATP, 10 mM MgCl2, pD 7.5, anaerobic
T4 construct: full-length with N-terminal 6xHis tag and TEV site; recombinant, plasmid-expressed; anaerobically purified; homodimer bridged by one [4Fe-4S] cluster
T4 sequence (Q9RFD6 whole entry S17A): as the sequence (Q9RFD6 whole entry) above, with S17A counted along it

BchL [5] = molecular target: T1, BchL; assay: nitrocellulose filter binding; conditions: labelled compound (α32P-ATP tracer); 4 µM BchL, 1 mM ATP, 10 mM MgCl2, pH 7.5, 25 °C; stoichiometry, no affinity constant
BchL [6] = molecular target: T5, BchL (Cereibacter sphaeroides, UniProt Q9RFD6, D180N/D182N); assay: nitrocellulose filter binding; conditions: labelled compound (α32P-ATP tracer); 4 µM BchL, 1 mM ATP, 10 mM MgCl2, pH 7.5, 25 °C; stoichiometry, no affinity constant
T5 construct: full-length with N-terminal 6xHis tag and TEV site; recombinant, plasmid-expressed; anaerobically purified; homodimer bridged by one [4Fe-4S] cluster
T5 sequence (Q9RFD6 whole entry D180N/D182N): as the sequence (Q9RFD6 whole entry) above, with D180N, D182N counted along it

| ATP bound per BchL dimer (BchL [5]) | ATP bound per BchL dimer (BchL [6]) | SMILES | EPR of the [4Fe-4S] cluster (BchL [1]) | nitrocellulose filter binding (linked-BchL (L1-L2) [2]) | nitrocellulose filter binding (linked-BchL (L1-L2) [3]) | hydrogen-deuterium exchange mass spectrometry (BchL [4]) |
| --- | --- | --- | --- | --- | --- | --- |
| – | – | Nc1ncnc2c1ncn2[C@@H]1O[C@H](COP(=O)(O)OP(=O)(O)O)[C@@H](O)[C@H]1O [ADP] | with ADP, the proportion of the FeS^A species was diminished by a factor of two | – | – | – |
| ~ 2 ATP per dimer | ~ 2 ATP per dimer | Nc1ncnc2c1ncn2[C@@H]1O[C@H](COP(=O)(O)OP(=O)(O)OP(=O)(O)O)[C@@H](O)[C@H]1O [ATP] | – | linked-BchL with unaltered ATP-binding sites (L1L2) bind ATP to similar extents | When only one of the two ATP binding sites is mutated (L1^KA-L2), partial ATP binding is observed | Both BchL and BchL^S17A show similar patterns of reduced deuteration upon binding to ATP |
